Reference: PubChem BioAssay (NCI)
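96-well plates; 48 h exposure; 5 concentrations. Endpoints by linear interpolation between flanking doses. Not reached: highest tested concentration assigned. GI50: concentration for 50% inhibition of growth. At the TGI there is no net growth.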

Experiments:
Assay in all cases: growth of human tumour cells (NCI), 48 h
SK-MEL-2 melanoma = tested on: SK-MEL-2 melanoma
PC-3 prostate = tested on: PC-3 prostate
OVCAR-5 ovarian = tested on: OVCAR-5 ovarian
NCI-H460 lung = tested on: NCI-H460 lung
SK-OV-3 ovarian = tested on: SK-OV-3 ovarian
OVCAR-4 ovarian = tested on: OVCAR-4 ovarian
HT29 colon = tested on: HT29 colon
LOX IMVI melanoma = tested on: LOX IMVI melanoma
HCT-116 colon = tested on: HCT-116 colon
OVCAR-8 ovarian = tested on: OVCAR-8 ovarian
IGROV1 ovarian = tested on: IGROV1 ovarian
A549 NSCLC = tested on: A549 NSCLC
SF-268 CNS = tested on: SF-268 CNS
NCI-H23 lung = tested on: NCI-H23 lung
SR leukemia = tested on: SR leukemia
NCI-H522 lung = tested on: NCI-H522 lung
BT-549 breast = tested on: BT-549 breast
SN12C renal = tested on: SN12C renal
COLO 205 colon = tested on: COLO 205 colon
SNB-19 CNS = tested on: SNB-19 CNS
HS 578T breast = tested on: HS 578T breast
NCI/ADR-RES ovarian = tested on: NCI/ADR-RES ovarian
MDA-MB-231 breast = tested on: MDA-MB-231 breast
SNB-75 CNS = tested on: SNB-75 CNS
U251 CNS = tested on: U251 CNS
MCF7 breast = tested on: MCF7 breast

## CC(C)(Cl)CCC1=C(Cl)C(=O)c2ccccc2C1=O
SK-MEL-2 melanoma
  GI50: 2.43 µM
  TGI: 4.97 µM
PC-3 prostate
  GI50: 2.27 µM
  TGI: 8.07 µM
OVCAR-5 ovarian
  GI50: 2.25 µM
  TGI: 5.6 µM
NCI-H460 lung
  GI50: 3.31 µM
  TGI: 12.4 µM
SK-OV-3 ovarian
  GI50: 5.48 µM
  TGI: 17.6 µM
OVCAR-4 ovarian
  GI50: 1.55 µM
  TGI: 2.89 µM
HT29 colon
  GI50: 15.6 µM
  TGI: 31.5 µM
LOX IMVI melanoma
  GI50: 1.73 µM
  TGI: 3.26 µM
HCT-116 colon
  GI50: 1.59 µM
  TGI: 3.19 µM
OVCAR-8 ovarian
  GI50: 2.03 µM
  TGI: 5.03 µM
IGROV1 ovarian
  GI50: 2.35 µM
  TGI: 5.22 µM
A549 NSCLC
  GI50: 3.2 µM
  TGI: 11 µM
SF-268 CNS
  GI50: 3.07 µM
  TGI: 11.3 µM
NCI-H23 lung
  GI50: 2.82 µM
  TGI: 9.93 µM
SR leukemia
  GI50: 2.04 µM
  TGI: 5.69 µM
NCI-H522 lung
  GI50: 0.586 µM
  TGI: 1.91 µM
BT-549 breast
  GI50: 2.35 µM
  TGI: 8.78 µM
SN12C renal
  GI50: 3.64 µM
  TGI: 13.5 µM
COLO 205 colon
  GI50: 2.07 µM
  TGI: 4.12 µM
SNB-19 CNS
  GI50: 4.22 µM
  TGI: 17.1 µM
HS 578T breast
  GI50: 3.26 µM
  TGI: 45.8 µM
NCI/ADR-RES ovarian
  GI50: 3.29 µM
  TGI: 19.5 µM
MDA-MB-231 breast
  GI50: 1.73 µM
  TGI: 3.65 µM
SNB-75 CNS
  GI50: 1.69 µM
  TGI: 6.44 µM
U251 CNS
  GI50: 2.43 µM
  TGI: 8.67 µM
MCF7 breast
  GI50: 1.99 µM
